From US4916231A, “Alkenyltetrazole derivatives” (Shionogi & Co., Ltd., priority 1988, dated 1990)
Structures can show the parent of a compound that is named as a salt. Where two headings read alike, the source gives them in different places.

Key:
Rats Washed Platelet = assay: in vitro rat washed platelet aggregation test (collagen-induced); type: cell-based, rat (Sprague-Dowley); settings: 0.05 h, inducer collagen 4 μg/ml, 37° C., 3 minutes after inducer, read-out: 50% Inhibitory Concentration (IC50), Inhibition of Aggregation for Rats Washed Platelet
Procedure: From the abdominal artery of a male rat (Sprague-Dowley, 8 weeks old) was collected 10 ml of blood with a syringe containing 1.5 ml of ACD (85 mM of sodium citrate, 70 mM of citric acid, 110 mM of glucose) and 20 μg of prostaglandin E1. The blood is placed in a plastic test tube, shaken moderately turning and centrifuged for 10 minutes at 160×g to give platelet rich plasma (PRP). To the prepared PRP was added apyrase (25 μg/ml) and the mixture was layered on 40% bovine serum albumin. The resulting mixture is centrifuged at 1200×g for 25 minutes.
The platelet aggregation reaction was measured by an aggregometer (NKK HEMA TRACER 1 MODEL PAT-6A.6M, Niko bioscience). In a measuring cuvette was placed 245 μl of the washed platelet of which platelet number was adjusted to 5×10^5 /μl and set in the aggregometer. The washed platelet was stirred (1000 rpm) at 37° C. and 3.8 µl of 0.1M of CaCl2 was added thereto. One minute later, 0.5 µl of a solution of a test compound in dimethylsulfoxide was added and 2 minutes later, 1 µl of collagen (Collagen reagent Horm®, HORMON-CHEMIE Munchen GMBH, final concentrate 4 μg/ml) as an inducer for platelet aggregating was added. The platelet aggregation was monitored with an aggregometer in terms of the increase and decrease in transmittancy.

Guinea Pig Platelet = assay: Long Acting Inhibitory effect for Guinea Pig Platelet Aggregation (ex vivo), arachidonic acid-induced; type: in vivo, guinea pig (Slc- Hartley); settings: for AA (100 μM)-Induced Platelet Aggregation (%): 0.5 mg/kg, mean ± S.E., 5 guinea pigs
Procedure: A solution of test compound in physiological saline was administered (dosage: 0.5 mg/kg, dosage volume: 2 ml/Kg) to a guinea pig (Slc- Hartley, male, 9 weeks old, weight 520 to 590 g).
Inhibitory effect for platelet aggregation was measured in 1, 3, and 6 hours after administration of the test compounds.
Under sodium pentobarbital anesthesia, blood was collected from the abdominal artery in such the ratio that 3.8% sodium citrate solution/blood was 1 volume/9 volume.
The blood centrifuged for 15 minutes at 180×g at 22° C. to give platelet rich plasma (PRP). The remaining blood was further centrifuged at 3,000 rpm for 10 minutes at 22° C. to give platelet-poor plasma (PPP).
The platelet aggregation test was performed according to Born's method [Born, G.V.R., Nature, 194, 927-929 (1962)], using an aggregometer (model AUTO RAM-61, Rika Denki Kogyo CO., Ltd.). 400 µl of PRP, whose platelets number was prepared to count 50-55×10^4 /μl, was placed in a measuring cuvette and set in the aggregometer. PRP was stirred for 1 minute (at 1,200 rpm) at 37° C. and preliminarily warmed. As an inducer for platelet aggregating, 100 µl of arachidonic acid (sodium salt, Sigma) was added and the platelet aggregation was monitored with an aggregometer in terms of the increase and decrease in light transmission.
Setting the light transmittance for PRP at 0% of platelet aggregating rate, and that for PPP at 100%, the maximum light transmittance for the sample, after the addition of the inducer for platelet aggregating, was regarded as the maximum platelet aggragation rate.
The inhibitory rate for aggregation (%) was calculated from the ratio of the maximum aggregation rate in the test-compound-added group to that in the control group (carrier-added group).

[1] = tested on: sodium arachidonate-induced pulmonary thromboembolic death in mice; assay: Protective effects on sodium arachidonate-induced pulmonary thromboembolic death in mice; type: in vivo, mice (DDY); settings: for ED50: Mus musculus, iv, 1 h, into tail vein, mortality at 1 hour, read-out: ED50 (95% confidence limit)
Procedure: The mice (DDY, 4 weeks old, male, weight 20 to 25 g) in a group of ten are used.
Pulmonary thromboembolic death was induced by injecting 99% solution of sodium arachidonate (Sigma) in physiological saline [100 mg/kg (100% pulmonary thromboembolic death was induced in this amount.)] into tail vein. In order to examine the duration time of the test compound, sodium arachidonate was administrated in 15 minutes and 60 minutes after an administration of a solution of the test compounds in physioligical saline into tail vein. The mortality at 1 hour was determined and ED50 was calculated by probit method.

Row | SMILES | IC50 (Rats Washed Platelet) [nM] | further results
1 | O=S(=O)(N[C@H]1[C@H]2CC[C@H](C2)[C@@H]1C/C=C\CCCc1nn[nH]n1)c1ccc(Br)cc1 (relative stereo) [Iac-b, (1R*,2S*,3S*,4S*)-3-(4-bromophenylsulfonylamino-2-[(2Z)-6-(5-tetrazolyl)hex-2-enyl]bicyclo[2.2.1]heptane] | 2 | 
2 | Cc1ccc(S(=O)(=O)N[C@H]2[C@H]3CC[C@H](C3)[C@@H]2C/C=C\CCCc2nn[nH]n2)cc1 (relative stereo) [Iab-b, Sodium salt of (1R*,2S*,3S*,4S*)-2-[(2Z)-6-(5-tetrazolyl)hex-2-enyl]-3-(4-tolylsulfonylamino)bicyclo[2.2.1]-hepatane] | 2 | 
3 | O=S(=O)(N[C@H]1[C@H]2CC[C@H](C2)[C@@H]1C/C=C\CCCc1nnn[nH]1)c1ccccc1 (relative stereo) [Iaa-b, (1R*,2S*,3S*,4S*)-3-phenylsulfonylamino-2-[(2Z)-6-(5-tetrazolyl)hex-2-enyl]bicyclo[2.2.1]heptane] | 3 | AA (100 μM)-Induced Platelet Aggregation (%) (Guinea Pig Platelet; 0 hours after p.o. administration): 89.7 ± 1.4%; inhibition of arachidonic acid induced platelet aggregation (Guinea Pig Platelet; 1 and 3 hours after administration): significantly inhibited; AA (100 μM)-Induced Platelet Aggregation (%) (Guinea Pig Platelet; 1 hour after p.o. administration, * p < 0.05): 2.5 ± 2.0%; AA (100 μM)-Induced Platelet Aggregation (%) (Guinea Pig Platelet; 3 hours after p.o. administration, * p < 0.05): 19.0 ± 18.0%; inhibition of arachidonic acid induced platelet aggregation (Guinea Pig Platelet; 6 hours after administration): still observed; AA (100 μM)-Induced Platelet Aggregation (%) (Guinea Pig Platelet; 6 hours after p.o. administration): 56.3 ± 20.4%; duration of action (Guinea Pig Platelet; conclusion of ex vivo test): long acting; inhibitory potency, 15 vs 60 minutes pretreatment ([1]; 15 minutes and 60 minutes pretreatment): did not show significantly different inhibitory potency; inhibitory effect of 60 minutes pretreatment ([1]; 60 minutes pretreatment): rather stronger inhibitory effect; ED50 ([1]; pretreatment 15 min): 1.8 mg/kg; ED50 ([1]; pretreatment 60 min): 1.5 mg/kg; duration of action ([1]; conclusion of mouse test): long-acting
4 | O=S(=O)(N[C@H]1[C@H]2CC[C@H](C2)[C@@H]1C/C=C\CCCc1nnn[nH]1)c1ccccc1 [(+)-Iaa-b, (1R,2S,3S,4S)-3-phenylsulfonylamino-2-[(2Z)-6-(5-tetrazolyl)hex-2-enyl]bicyclo[2.2.1]heptane] | 2 | 
5 | O=S(=O)(N[C@@H]1[C@@H](C/C=C\CCCc2nnn[nH]2)[C@H]2CC[C@@H]1O2)c1ccccc1 (relative stereo) [Iba-b, (1R*,2R*,3R*,4S*)-3-phenylsulfonylamino-2-[(2Z)-6-(5-tetrazolyl)hex-2-enyl]-7-oxabicyclo[2.2.1]heptane] | 20 | 
6 | O=S(=O)(N[C@H]1[C@H]2CC[C@H](C2)[C@@H]1C/C=C\CCCc1nnn[nH]1)c1ccc(O)cc1 (relative stereo) [Iad-b, (1R*,2S*,3S*,4S*)-3-(4-hydroxyphenylsulfonylamino)-2-[(2Z)-6-(5-tetrazolyl)hex-2-enyl]bicyclo[2.2.1]heptane] | 2 | 
7 | COc1ccc(S(=O)(=O)N[C@H]2[C@H]3CC[C@H](C3)[C@@H]2C/C=C\CCCc2nnn[nH]2)cc1 (relative stereo) [Iae-b, (1R*,2S*,3S*,4S*)-3-(4-methoxyphenylsulfonylamino)-2-[(2Z)-6-(5-tetrazolyl)hex-2-enyl]bicyclo[2.2.1]heptane] | 2 | 

Continued, in another order:

Row | IC50 (Rats Washed Platelet) [nM] | SMILES | further results
8 | 4 | Cc1ccc(S(=O)(=O)N[C@@H]2[C@@H](C/C=C\CCCc3nnn[nH]3)C[C@H]3C[C@@H]2C3(C)C)cc1 [Ieb-b, (1R,2R,3S,5S)-2-(p-tolylsulfonylamino)-3-[(2Z)-6-(5-tetrazolyl)hex-2-enyl]-6,6-dimethylbicyclo[3.1.1]-heptane] | 
9 | 10 | O=S(=O)(N[C@H]1[C@H](C/C=C\CCCc2nnn[nH]2)[C@H]2CC[C@@H]1O2)c1ccccc1 (relative stereo) [Ica-b, (1R*,2S*,3S*,4S*)-3-phenylsulfonylamino-2-[(2Z)-6-(5-tetrazolyl)hex-2-enyl]-7-oxabicyclo[2.2.1]heptane] | 
10 | 20 | CC1(C)[C@H]2C[C@H](C/C=C\CCCc3nnn[nH]3)[C@@H](NS(=O)(=O)c3ccccc3)[C@@H]1C2 [Iea-b, (1R,2R,3S,5S)-2-phenylsulfonylamino-3-[(2Z)-6-(5-tetrazolyl)hex-2-enyl]-6,6-dimethylbicyclo[3.1.1]heptane] | 
11 | 20 | CC1(C)[C@H]2C[C@H](C/C=C\CCCc3nnn[nH]3)[C@@H](NS(=O)(=O)c3ccccc3Cl)[C@@H]1C2 [Iel-b, (1R,2R,3S,5S)-2-[(2-chlorophenyl)sulfonylamino]-3-[(2Z)-6-(5-tetrazolyl)hex-2-enyl]-6,6-dimethylbicyclo [3.1.1]heptane] | 
12 | 10 | CC1(C)[C@H]2C[C@H](C/C=C\CCCc3nnn[nH]3)[C@@H](NS(=O)(=O)c3ccc(-c4ccccc4)cc3)[C@@H]1C2 [Ieh-b, (1R,2R,3S,5S)-2-[(4-biphenylyl)sulfonylamino]-3-[(2Z)-6-(5-tetrazolyl)hex-2-enyl]-6,6-dimethylbicyclo[3.1.1]heptane] | 
13 | 9 | CC1(C)[C@H]2C[C@H](C/C=C\CCCc3nnn[nH]3)[C@@H](NS(=O)(=O)c3ccc4ccccc4c3)[C@@H]1C2 [Iei-b, (1R,2R,3S,5S)-2-[(2-naphthyl)sulfonylamino]-3-[(2Z)-6-(5-tetrazolyl)hex-2-enyl]-6,6-dimethylbicyclo[3.1.1]-heptane] | 
14 | 7 | CC1(C)[C@H]2C[C@H](C/C=C\CCCc3nnn[nH]3)[C@@H](NS(=O)(=O)c3ccc(Cl)cc3)[C@@H]1C2 [Iej-b, (1R,2R,3S,5S)-2-[(4-chlorophenyl)sulfonylamino]-3-[(2Z)-6-(5-tetrazolyl)hex-2-enyl]-6,6-dimethylbicyclo [3.1.1]heptane] | 
15 | 3 | CC1(C)[C@H]2C[C@H](NS(=O)(=O)c3ccccc3)[C@@H](C/C=C\CCCc3nn[nH]n3)[C@@H]1C2 [Ida-b] | 
16 | 5 | COc1ccc(S(=O)(=O)N[C@@H]2[C@@H](C/C=C\CCCc3nnn[nH]3)C[C@H]3C[C@@H]2C3(C)C)cc1 [Iee-b, (1R,2R,3S,5S)-2-[(4-methoxyphenyl)sulfonylamino]-3-[(2Z)-6-(5-tetrazolyl)hex-2-enyl]-6,6-dimethylbicyclo [3.1.1]heptane] | 
17 | 2 | CC1(C)[C@H]2C[C@H](C/C=C\CCCc3nnn[nH]3)[C@@H](NS(=O)(=O)c3ccc(Br)cc3)[C@@H]1C2 [Iec-b, (1R,2R,3S,5S)-2-[(4-bromophenyl)sulfonylamino]-3-[(2Z)-6-(5-tetrazolyl)hex-2-enyl]-6,6-dimethylbicyclo[3.1.1]heptane] | 
18 | 5 | CC1(C)[C@H]2C[C@H](C/C=C\CCCc3nnn[nH]3)[C@@H](NS(=O)(=O)c3cccc(Cl)c3)[C@@H]1C2 [Iek-b, (1R,2R,3S,5S)-2-[(3-chlorophenyl)sulfonylamino]-3-[(2Z)-6-(5-tetrazolyl)hex-2-enyl]-6,6-dimethyl-bicyclo [3.1.1]heptane] | 
